These results are taken from publication PMC7605213 (Journal of medicinal chemistry, 2020).

Several values for one entry are separate records, joined by “and”; a condition that tells them apart may be missing. Equal entries are not always repeated. Entries after “also recorded” stand apart in the source; their conditions may differ. Marks after values point to notes of the source that are not given here.

One series relates to P. berghei ANKA 676m1cl1. In words: Assessment of the curative property. Type of series: in vivo, BALB/c female mice.
The test system of series [1] is P. berghei ANKA strain expressing luciferase. In words: In vivo antimalarial activity: elimination of existing infection. To be noted: 25 mg/kg daily p.o., monophosphate salts, treatment from 48 h post infection. Also on record: species or system Swiss-Webster female mice.
The test system of the next series is HepG2 cells. The experiment in a line: In vitro cytotoxicity assay. The following applies: for selectivity index (SI): SI = HepG2 EC50/Dd2 EC50. Type of series: cell-based, human.
A further series deals with CQ-sensitive 3D7 strain. In words: In vitro antiplasmodial activity, SYBR green I fluorescence, 3D7 strain. Type of series: cell-based, Plasmodium falciparum.
Series [2] has as its system CQ-resistant Pf Dd2 strain. The experiment in a line: In vitro antiplasmodial activity, SYBR green I fluorescence, Dd2 strain. Format: cell-based, Plasmodium falciparum. To be noted: Dd2.
For series [3] the following is noted: mouse liver microsomes, 15, 30 and 60 min, tentative assignment. On the technique in general: Liver microsomes are vesicles of endoplasmic reticulum, rich in cytochrome P450 enzymes.
The conditions of series [4]: mouse liver microsomes; values reported from the initial study ref 33; cited from earlier work.
Another series has as its system malaria infection. The following applies: cited from earlier work.
For series [5], the system named is P. falciparum Dd2 cultures. The experiment in a line: Transmission electron microscopy of treated parasites. Format: cell-based, Plasmodium falciparum. To be noted: 5 × EC50 for 1.5, 3, 6 or 12 h.
Series [6] has as its system synchronized P. falciparum Dd2 cultures. The experiment in a line: Stage-specific action. Type of series: cell-based, Plasmodium falciparum.
Series [7] concerns β-hematin crystal formation. In words: β-Hematin formation inhibition. Type of series: biochemical. To be noted: 100 μM hemin, 16 h, 37 °C, highest concentration tested 200 μM.

`CN(C)CCNc1cc(/C=C/c2ccc(C(F)(F)F)cc2)nc2ccc(Cl)cc12.O=P(O)(O)O` [24s, (E)-N^1-(6-Chloro-2-(4-(trifluoromethyl)styryl)quinolin-4-yl)-N^2,N^2-dimethylethane-1,2-diamine Monophosphate Salt]: the “mice cured (no parasites in blood smears / 100% reduction of parasitemia)” value in the series with P. berghei ANKA 676m1cl1 (100 mg/kg p.o. once daily for 4 days) was “no parasites were detected and 5/5”. Further, in the series on P. berghei ANKA 676m1cl1 (25 and 100 mg/kg p.o.), the body weight change entry was “no significant weight loss” and the “tolerability / signs of toxicity” value is recorded as “well tolerated; also recorded: no apparent signs of toxicity”. Also, the “effect on malaria infection (bioluminescence day 7)” value in series [1] was “full protection and cure”.

As for `Fc1ccc(/C=C/c2cc(NCCCCN3CCOCC3)c3cc(Cl)ccc3n2)cc1` [compound 92, (E)-6-Chloro-2-(4-fluorostyryl)-N-(4-morpholinobutyl)quinolin-4-amine], the “fold increase in cytotoxicity relative to compound 81” value in the series on HepG2 cells (HepG2) was found to be 4.8 fold. The “selectivity index (SI)” value in the series on HepG2 cells is more than 1000. The “fold increase in inhibitory activity relative to compound 81” value with CQ-sensitive 3D7 strain is approximately 6 fold. Moreover, the “fold improved potency compared with counterpart 81” value in [2] is recorded as approximately 2 fold. For the same compound, the “metabolites / metabolic pathway identified by LC–MS” value in series [3] was “breakage of the morpholine ring”.

`CCN(CC)CCCC(C)Nc1cc(/C=C/c2ccc([N+](=O)[O-])cc2)nc2ccc(OC)cc12` (centres unmarked) [UCF501]: the “% remaining after 60 min” value in series [4] was 47.8^a %. Further, in the series on malaria infection (100 mg/kg twice daily p.o. ref 33), the “mice cured of malaria infection” value was 4/5. Further, the “metabolites / metabolic pathway identified by LC–MS” value in series [3] was “N-deethylation of the tertiary amine (monodeethyl UCF501 and UCF501-M1), O-demethylation (UCF501-M2), oxidation of styrylquinoline (UCF501-M3), and the reduction of the nitro group”.

On to `CN(C)CCNc1cc(/C=C/c2ccc(C(F)(F)F)cc2)nc2ccc(Cl)cc12` [compound 24, (E)-N^1-(6-Chloro-2-(4-(trifluoromethyl)styryl)quinolin-4-yl)-N^2,N^2-dimethylethane-1,2-diamine], for which the “ultrastructural effect (TEM)” value in [5] is given as “appearance of membrane-bound structures within the parasite DV”. Also, in the series with HepG2 cells, the “selectivity index (SI)” value is listed as more than 1000. The “stage-specific action on cell cycle progression” value in [6] (5 × EC50 (DHA 50 nM, atovaquone 6.6 nM) added at 6, 18, 30, 42 HPI) was “blocked when the compound was added at 6, 18, and 30 HPI”. In addition, the “effect on cell cycle when added at 42 HPI” value in series [6] (5 × EC50, added at 42 HPI) is “did not affect the schizont maturation or the reinvasion of new merozoites”. Besides, the “inhibition of β-hematin formation” value in series [7] is “very low activity against β-hematin crystal formation; also recorded: weaker inhibitory activity toward β-hematin formation as compared with CQ”. In series [3], the “metabolites / metabolic pathway identified by LC–MS” value is listed as “N-demethylation was the primary metabolic route”.

For the compound `CCN(CC)CCCC(C)Nc1ccnc2cc(Cl)ccc12` (centres unmarked) [CQ, chloroquine, reference compound], the “mean survival time (MSD)” value with malaria infection (30 mg/kg ref 61) is listed as 24 days. In [7], the “inhibition of β-hematin formation” value is given as “strongly inhibited β-hematin formation”.
